According to patent publication US20080200454A1, “CARBON-LINKED TETRAHYDRO-PYRAZOLO-PYRIDINE MODULATORS OF CATHEPSIN S” (priority 2007, published 2008):
Where two headings read alike, the source gives them in different places.

Target: Recombinant human cathepsin S (CatS) (Homo sapiens, UniProt P25774)
Assay: Recombinant human cathepsin S (CatS) inhibition assay, fluorogenic substrate Z-Valine-Valine-Arginine-AMC;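 also: Baculovirus-expressed CatS in pH 5.0 sodium acetate buffer with DTT and NaCl, fluorescence read each minute over 20 min, inhibition derived from rate slope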

Sequence of Recombinant human cathepsin S (CatS) (P25774 115-331): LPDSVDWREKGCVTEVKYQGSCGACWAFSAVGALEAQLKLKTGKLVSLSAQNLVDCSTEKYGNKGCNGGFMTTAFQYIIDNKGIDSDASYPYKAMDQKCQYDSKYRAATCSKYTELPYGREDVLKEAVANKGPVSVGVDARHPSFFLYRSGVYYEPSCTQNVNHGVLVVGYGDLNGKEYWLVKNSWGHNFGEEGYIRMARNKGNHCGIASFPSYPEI

IC50 | Structure (SMILES) | IC50 (CatS IC50)
10 nM | CS(=O)(=O)N1CCc2c(c(-c3ccc(Cl)c(C#Cc4ccc(CNCc5ccc(Cl)cc5)cc4)c3)nn2CCCN2CCC(c3ccccc3)CC2)C1 [Example 178, 1-{4-[(2-Chloro-5-{5-(methylsulfonyl)-1-[3-(4-phenylpiperidin-1-yl)propyl]-4,5,6,7-tetrahydro-1H-pyrazolo[4,3-c]pyridin-3-yl}phenyl)ethynyl]phenyl}-N-[(4-chlorophenyl)methyl]methanamine] | 
20 nM | CS(=O)(=O)N1CCc2c(c(-c3ccc(Cl)c(C#Cc4ccc(CNCc5ccc(Cl)cc5)cc4)c3)nn2CCCN2CCN(c3ccccn3)CC2)C1 [Example 179, 1-{4-[(2-Chloro-5-{5-(methylsulfonyl)-1-[3-(4-pyridin-2-ylpiperazin-1-yl)propyl]-4,5,6,7-tetrahydro-1H-pyrazolo[4,3-c]pyridin-3-yl}phenyl)ethynyl]phenyl}-N-[(4-chlorophenyl)methyl]methanamine] | 
20 nM | CS(=O)(=O)N1CCc2c(c(-c3ccc(Cl)c(C#Cc4ccc(CNCc5ccc(Cl)cc5)cc4)c3)nn2CCCN2CCN(c3ccccc3)CC2)C1 [Example 180, 1-{4-[(2-Chloro-5-{5-(methylsulfonyl)-1-[3-(4-phenylpiperazin-1-yl)propyl]-4,5,6,7-tetrahydro-1H-pyrazolo[4,3-c]pyridin-3-yl}phenyl)ethynyl]phenyl}-N-[(4-chlorophenyl)methyl]methanamine] | 
60 nM | CS(=O)(=O)N1CCc2c(c(-c3ccc(Cl)c(C#Cc4ccc(CNCc5ccc(Cl)cc5)cc4)c3)nn2CCCN2CCCCC2)C1 [Example 181, 1-[4-({2-Chloro-5-[5-(methylsulfonyl)-1-(3-piperidin-1-ylpropyl)-4,5,6,7-tetrahydro-1H-pyrazolo[4,3-c]pyridin-3-yl]phenyl}ethynyl)phenyl]-N-[(4-chlorophenyl)methyl]methanamine] | 
 | C[C@H]1COCCN1CCCn1nc(-c2ccc(Cl)c(C#Cc3ccc(CNCc4ccc(Cl)cc4)cc3)c2)c2c1CCN(S(C)(=O)=O)C2 [Example 182, 1-[4-({2-Chloro-5-[1-{3-[(3S)-3-methylmorpholin-4-yl]propyl}-5-(methylsulfonyl)-4,5,6,7-tetrahydro-1H-pyrazolo[4,3-c]pyridin-3-yl]phenyl}ethynyl)phenyl]-N-[(4-chlorophenyl)methyl]methanamine] | 80 nM
 | CS(=O)(=O)N1CCc2c(c(-c3ccc(Cl)c(C#Cc4ccc(CNCc5ccc(Cl)cc5)cc4)c3)nn2CCCN2CCSCC2)C1 [Example 183, 1-[4-({2-Chloro-5-[5-(methylsulfonyl)-1-(3-thiomorpholin-4-ylpropyl)-4,5,6,7-tetrahydro-1H-pyrazolo[4,3-c]pyridin-3-yl]phenyl}ethynyl)phenyl]-N-[(4-chlorophenyl)methyl]methanamine] | 80 nM
 | CS(=O)(=O)N1CCc2c(c(-c3ccc(Cl)c(C#Cc4cccc(C=O)c4)c3)nn2CCCN2CCOCC2)C1 [Example 184, 3-({2-Chloro-5-[5-(methylsulfonyl)-1-(3-morpholin-4-ylpropyl)-4,5,6,7-tetrahydro-1H-pyrazolo[4,3-c]pyridin-3-yl]phenyl}ethynyl)benzaldehyde] | 320 nM
 | CS(=O)(=O)N1CCc2c(c(-c3ccc(Cl)c(C#Cc4cccc(CNCC5CCOCC5)c4)c3)nn2CCCN2CCOCC2)C1 [Example 185, 1-[3-({2-Chloro-5-[5-(methylsulfonyl)-1-(3-morpholin-4-ylpropyl)-4,5,6,7-tetrahydro-1H-pyrazolo[4,3-c]pyridin-3-yl]phenyl}ethynyl)phenyl]-N-(tetrahydro-2H-pyran-4-ylmethyl)methanamine] | 520 nM
 | CS(=O)(=O)N1CCc2c(c(-c3ccc(Cl)c(CCc4cccc(CNCC5CCOCC5)c4)c3)nn2CCCN2CCOCC2)C1 [Example 186, 1-[3-(2-{2-Chloro-5-[5-(methylsulfonyl)-1-(3-morpholin-4-ylpropyl)-4,5,6,7-tetrahydro-1H-pyrazolo[4,3-c]pyridin-3-yl]phenyl}ethyl)phenyl]-N-(tetrahydro-2H-pyran-4-ylmethyl)methanamine] | 690 nM
 | CS(=O)(=O)N1CCc2c(c(-c3ccc(Cl)c(C#Cc4cccc(CNCc5ccccn5)c4)c3)nn2CCCN2CCOCC2)C1 [Example 187, 1-[3-({2-Chloro-5-[5-(methylsulfonyl)-1-(3-morpholin-4-ylpropyl)-4,5,6,7-tetrahydro-1H-pyrazolo[4,3-c]pyridin-3-yl]phenyl}ethynyl)phenyl]-N-(pyridin-2-ylmethyl)methanamine] | 150 nM
 | COC(=O)CNCc1cccc(C#Cc2cc(-c3nn(CCCN4CCOCC4)c4c3CN(S(C)(=O)=O)CC4)ccc2Cl)c1 [Example 188, Methyl N-{[3-({2-chloro-5-[5-(methylsulfonyl)-1-(3-morpholin-4-ylpropyl)-4,5,6,7-tetrahydro-1H-pyrazolo[4,3-c]pyridin-3-yl]phenyl}ethynyl)phenyl]methyl}glycinate] | 550 nM
 | CS(=O)(=O)N1CCc2c(c(-c3ccc(Cl)c(C#Cc4cccc(CNCC(=O)O)c4)c3)nn2CCCN2CCOCC2)C1 [Example 189, N-{[3-({2-Chloro-5-[5-(methylsulfonyl)-1-(3-morpholin-4-ylpropyl)-4,5,6,7-tetrahydro-1H-pyrazolo[4,3-c]pyridin-3-yl]phenyl}ethynyl)phenyl]methyl}glycine] | 140 nM
1110 nM | COC(=O)[C@@H]1Cc2ccc(C#Cc3cc(-c4nn(CCCN5CCOCC5)c5c4CN(S(C)(=O)=O)CC5)ccc3Cl)cc2CN1C(=O)OC(C)(C)C [Example 190, 2-(1,1-Dimethylethyl) 3-methyl (3S)-7-({2-chloro-5-[5-(methylsulfonyl)-1-(3-morpholin-4-ylpropyl)-4,5,6,7-tetrahydro-1H-pyrazolo[4,3-c]pyridin-3-yl]phenyl}ethynyl)-3,4-dihydroisoquinoline-2,3(1H)-dicarboxylate] | 
630 nM | CC(C)(C)OC(=O)N1Cc2cc(C#Cc3cc(-c4nn(CCCN5CCOCC5)c5c4CN(S(C)(=O)=O)CC5)ccc3Cl)ccc2C[C@H]1C(=O)O [Example 191, (3S)-7-({2-Chloro-5-[5-(methylsulfonyl)-1-(3-morpholin-4-ylpropyl)-4,5,6,7-tetrahydro-1H-pyrazolo[4,3-c]pyridin-3-yl]phenyl}ethynyl)-2-{[(1,1-dimethylethyl)oxy]carbonyl}-1,2,3,4-tetrahydroisoquinoline-3-carboxylic acid] | 
 | CNC(=O)[C@@H]1Cc2ccc(C#Cc3cc(-c4nn(CCCN5CCOCC5)c5c4CN(S(C)(=O)=O)CC5)ccc3Cl)cc2CN1 [Example 192, (3S)-7-({2-Chloro-5-[5-(methylsulfonyl)-1-(3-morpholin-4-ylpropyl)-4,5,6,7-tetrahydro-1H-pyrazolo[4,3-c]pyridin-3-yl]phenyl}ethynyl)-N-methyl-1,2,3,4-tetrahydroisoquinoline-3-carboxamide] | 80 nM
 | CN(C)C(=O)[C@@H]1Cc2ccc(C#Cc3cc(-c4nn(CCCN5CCOCC5)c5c4CN(S(C)(=O)=O)CC5)ccc3Cl)cc2CN1 [Example 193, (3S)-7-({2-Chloro-5-[5-(methylsulfonyl)-1-(3-morpholin-4-ylpropyl)-4,5,6,7-tetrahydro-1H-pyrazolo[4,3-c]pyridin-3-yl]phenyl}ethynyl)-N,N-dimethyl-1,2,3,4-tetrahydroisoquinoline-3-carboxamide] | 50 nM
 | CS(=O)(=O)N1CCc2c(c(-c3ccc(Cl)c(C#Cc4ccc5c(c4)CN[C@H](C(=O)N4CCOCC4)C5)c3)nn2CCCN2CCOCC2)C1 [Example 194, (3S)-7-({2-Chloro-5-[5-(methylsulfonyl)-1-(3-morpholin-4-ylpropyl)-4,5,6,7-tetrahydro-1H-pyrazolo[4,3-c]pyridin-3-yl]phenyl}ethynyl)-3-(morpholin-4-ylcarbonyl)-1,2,3,4-tetrahydroisoquinoline] | 20 nM
 | CS(=O)(=O)N1CCc2c(c(-c3ccc(Cl)c(C#Cc4ccc5c(c4)CN[C@@H](C(=O)N4CCCC4)C5)c3)nn2CCCN2CCOCC2)C1 [Example 196, (3R)-7-({2-Chloro-5-[5-(methylsulfonyl)-1-(3-morpholin-4-ylpropyl)-4,5,6,7-tetrahydro-1H-pyrazolo[4,3-c]pyridin-3-yl]phenyl}ethynyl)-3-(pyrrolidin-1-ylcarbonyl)-1,2,3,4-tetrahydroisoquinoline] | 650 nM
 | CS(=O)(=O)N1CCc2c(c(-c3ccc(Cl)c(C#Cc4ccc5c(c4)CN[C@@H](C(N)=O)C5)c3)nn2CCCN2CCOCC2)C1 [Example 197, (3R)-7-({2-Chloro-5-[5-(methylsulfonyl)-1-(3-morpholin-4-ylpropyl)-4,5,6,7-tetrahydro-1H-pyrazolo[4,3-c]pyridin-3-yl]phenyl}ethynyl)-1,2,3,4-tetrahydroisoquinoline-3-carboxamide] | 200 nM
 | COC(=O)[C@@H]1Cc2ccc(C#Cc3cc(-c4nn(CCCN5CCOCC5)c5c4CN(S(C)(=O)=O)CC5)ccc3Cl)cc2CN1 [Example 198, Methyl (3S)-7-({2-chloro-5-[5-(methylsulfonyl)-1-(3-morpholin-4-ylpropyl)-4,5,6,7-tetrahydro-1H-pyrazolo[4,3-c]pyridin-3-yl]phenyl}ethynyl)-1,2,3,4-tetrahydroisoquinoline-3-carboxylate] | 70 nM
60 nM | CS(=O)(=O)N1CCc2c(c(-c3ccc(Cl)c(C#Cc4ccc5c(c4)CN[C@H](C(=O)O)C5)c3)nn2CCCN2CCOCC2)C1 [Example 199, (3S)-7-({2-Chloro-5-[5-(methylsulfonyl)-1-(3-morpholin-4-ylpropyl)-4,5,6,7-tetrahydro-1H-pyrazolo[4,3-c]pyridin-3-yl]phenyl}ethynyl)-1,2,3,4-tetrahydroisoquinoline-3-carboxylic acid] | 
 | COC(=O)[C@H]1Cc2ccc(C#Cc3cc(-c4nn(CCCN5CCOCC5)c5c4CN(S(C)(=O)=O)CC5)ccc3Cl)cc2CN1 [Example 200, Methyl (3R)-7-({2-chloro-5-[5-(methylsulfonyl)-1-(3-morpholin-4-ylpropyl)-4,5,6,7-tetrahydro-1H-pyrazolo[4,3-c]pyridin-3-yl]phenyl}ethynyl)-1,2,3,4-tetrahydroisoquinoline-3-carboxylate] | 90 nM
